Test results from patent publication US8242118B2, “Arylsulfonamide derivatives for use as CCR3 antagonists in the treatment of inflammatory and immunological disorders” (Axikin Pharmaceuticals Inc., priority 2001, dated 2012).
Where a name gives a salt, the structure may show the parent alone.

Legend:
[1] = molecular target: T1, Human CCR3 (Homo sapiens, UniProt P51677); test: Calcium mobilization assay, eotaxin-stimulated; format: cell-based; settings: human CCR3-transformed K562 cells, 10 nM eotaxin; compounds of about 40 to 90% purity; read-out: Activity grade Ca2+ (IC50 class)
T1 construct: The cloned CCR3 cDNA was constructed with pcDNA3 vector and transfected into a IC562 cell line; expressed in transfected cells
T1 sequence (P51677 1-355): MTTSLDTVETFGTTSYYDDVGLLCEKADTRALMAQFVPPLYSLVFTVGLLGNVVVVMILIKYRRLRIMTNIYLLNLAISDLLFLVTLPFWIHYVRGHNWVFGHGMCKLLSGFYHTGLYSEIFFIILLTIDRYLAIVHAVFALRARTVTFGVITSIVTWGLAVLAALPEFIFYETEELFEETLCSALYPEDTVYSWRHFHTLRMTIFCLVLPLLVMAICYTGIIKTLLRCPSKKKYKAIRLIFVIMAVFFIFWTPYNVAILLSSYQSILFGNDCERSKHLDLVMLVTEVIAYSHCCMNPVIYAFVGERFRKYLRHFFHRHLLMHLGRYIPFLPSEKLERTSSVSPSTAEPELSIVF
Outline: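 K562 cells transfected with human CCR3, pretreated 20–24 h with 5 mM sodium butyrate, loaded with Fluo-3AM. Compound added 10 min before stimulation with 10 nM (final) eotaxin; cytoplasmic calcium read over 60 s by FDSS, IC50 from inhibition curve.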

| SMILES | melting point [°C] | IC50 [1] [nM] |
| --- | --- | --- |
| Cc1cc(C)cc(Oc2ccc([N+](=O)[O-])cc2S(=O)(=O)N2CCN(C(=O)OC(C)(C)C)CC2)c1 [Example 1-1, tert-butyl 4-{[2-(3,5-dimethylphenoxy)-5-nitrophenyl]sulfonyl}-1-piperazinecarboxylate] | 232 to 233 | > 10000 |
| Cc1cc(C)cc(Oc2ccc([N+](=O)[O-])cc2S(=O)(=O)N2CCNCC2)c1 [Example 1-2, 1-{[2-(3,5-dimethylphenoxy)-5-nitrophenyl]sulfonyl}piperazine hydrochloride] |  | < 1000 |
| Cl.O=[N+]([O-])c1ccc(Oc2cc(F)cc(F)c2)c(S(=O)(=O)N2CCNCC2)c1 [Example 1-4] | 273 to 274 | < 1000 |
| COc1cc(OC)cc(Oc2ccc([N+](=O)[O-])cc2S(=O)(=O)N2CCNCC2)c1.Cl [Example 1-5] | 211 to 213 | > 10000 |
| Cl.O=[N+]([O-])c1ccc(Oc2cc(C(F)(F)F)cc(C(F)(F)F)c2)c(S(=O)(=O)N2CCNCC2)c1 [Example 1-6] | 188 to 191 | < 1000 |
| CC(C)(C)c1cc(Oc2ccc([N+](=O)[O-])cc2S(=O)(=O)N2CCNCC2)cc(C(C)(C)C)c1.Cl [Example 1-7] | 141 to 143 | > 10000 |
| Cc1cc(Oc2ccc([N+](=O)[O-])cc2S(=O)(=O)N2CCNCC2)cc(C(C)C)c1.Cl [Example 1-8] | 182 to 185 | < 1000 |
| CC(C)c1cccc(Oc2ccc([N+](=O)[O-])cc2S(=O)(=O)N2CCNCC2)c1.Cl [Example 1-9] | 168 to 170 | < 1000 |
| Cl.N#Cc1cccc(Oc2ccc([N+](=O)[O-])cc2S(=O)(=O)N2CCNCC2)c1 [Example 1-10] | 265 to 267 | 1000 to 10000 |
| Cl.O=[N+]([O-])c1ccc(Oc2cccc3ccccc23)c(S(=O)(=O)N2CCNCC2)c1 [Example 1-11] | 196 to 198 | < 1000 |
| Cc1ccccc1Oc1ccc([N+](=O)[O-])cc1S(=O)(=O)N1CCNCC1.Cl [Example 1-12] | 167 to 169 | 1000 to 10000 |
| Cl.Cl.Cl.Nc1ccc(Oc2ccc([N+](=O)[O-])cc2S(=O)(=O)N2CCNCC2)cc1 [Example 1-13] | 246 to 248 | > 10000 |
| O=[N+]([O-])c1ccc(Oc2ccccc2)c(S(=O)(=O)N2CCNCC2)c1 [Example 1-18] |  | 1000 to 10000 |
| COc1ccc(Oc2ccc([N+](=O)[O-])cc2S(=O)(=O)N2CCNCC2)cc1 [Example 1-19] |  | > 10000 |
| O=[N+]([O-])c1ccc(Oc2ccc(F)cc2)c(S(=O)(=O)N2CCNCC2)c1 [Example 1-20] |  | > 10000 |
| CC(C)(C)c1ccc(Oc2ccc([N+](=O)[O-])cc2S(=O)(=O)N2CCNCC2)cc1 [Example 1-21] |  | > 10000 |
| O=[N+]([O-])c1ccc(Oc2ccc(Cl)cc2)c(S(=O)(=O)N2CCNCC2)c1 [Example 1-22] |  | > 10000 |
| O=[N+]([O-])c1ccc(Oc2cccc(F)c2)c(S(=O)(=O)N2CCNCC2)c1 [Example 1-25] |  | < 1000 |
| COc1ccccc1Oc1ccc([N+](=O)[O-])cc1S(=O)(=O)N1CCNCC1.Cl [Example 1-27] | 142 | < 1000 |
| Cl.O=[N+]([O-])c1ccc(Oc2ccccc2Cl)c(S(=O)(=O)N2CCNCC2)c1 [Example 1-28] | 166 to 169 | < 1000 |
| N#Cc1ccccc1Oc1ccc([N+](=O)[O-])cc1S(=O)(=O)N1CCNCC1 [Example 1-29] |  | 1000 to 10000 |
| CC(=O)c1ccccc1Oc1ccc([N+](=O)[O-])cc1S(=O)(=O)N1CCNCC1.Cl [Example 1-30] | 194 to 200 | > 10000 |
| CC(=O)c1cccc(Oc2ccc([N+](=O)[O-])cc2S(=O)(=O)N2CCNCC2)c1.Cl [Example 1-31] | 77 | > 10000 |
| CN(C)c1cccc(Oc2ccc([N+](=O)[O-])cc2S(=O)(=O)N2CCNCC2)c1.Cl [Example 1-32] | 182 | 1000 to 10000 |
| Cl.O=[N+]([O-])c1ccc(Oc2cc(Cl)cc(Cl)c2)c(S(=O)(=O)N2CCNCC2)c1 [Example 1-33] | 260 to 264 | < 1000 |
| Cl.O=[N+]([O-])c1ccc(Oc2cccc(C(F)(F)F)c2)c(S(=O)(=O)N2CCNCC2)c1 [Example 1-34] | 128 | < 1000 |

| SMILES | melting point [°C] | IC50 [1] [nM] |
| --- | --- | --- |
| Cc1cc(C)cc(Oc2ccc(S(C)(=O)=O)cc2S(=O)(=O)N2CCNCC2)c1.Cl [Example 1-35] | 267 to 268 | < 1000 |
| CC(C)(C)c1cccc(Oc2ccc([N+](=O)[O-])cc2S(=O)(=O)N2CCNCC2)c1.Cl [Example 1-36] | 155 | < 1000 |
| COc1cc(C)cc(Oc2ccc([N+](=O)[O-])cc2S(=O)(=O)N2CCNCC2)c1.Cl [Example 1-37] | 113 | < 1000 |
| Cl.O=[N+]([O-])c1cccc(Oc2ccc([N+](=O)[O-])cc2S(=O)(=O)N2CCNCC2)c1 [Example 1-38] | 150 | < 1000 |
| Cl.O=[N+]([O-])c1ccc(Oc2cccc(Br)c2)c(S(=O)(=O)N2CCNCC2)c1 [Example 1-39] | 119 | < 1000 |
| CCCCc1ccccc1Oc1ccc([N+](=O)[O-])cc1S(=O)(=O)N1CCNCC1.Cl [Example 1-40] | 140 to 150 | < 1000 |
| Cc1cc(C)cc(Oc2ccccc2S(=O)(=O)N2CCNCC2)c1.Cl [Example 1-41] | 205 to 207 | 1000 to 10000 |
| Cc1cc(C)cc(Oc2ccc(C(=O)N3CCNCC3)cc2S(=O)(=O)N2CCNCC2)c1.Cl.Cl [Example 1-42] | 288 to 290 | > 10000 |
| Cc1cc(C)cc(Oc2ccc(C(F)(F)F)cc2S(=O)(=O)N2CCNCC2)c1.Cl [Example 1-43] | 238 to 239 | < 1000 |
| Cc1cc(C)cc(Oc2cc(C)c([N+](=O)[O-])cc2S(=O)(=O)N2CCNCC2)c1.Cl [Example 1-44] | 159 | 1000 to 10000 |
| Cc1cc(Oc2ccc([N+](=O)[O-])cc2S(=O)(=O)N2CCNCC2)c(C(C)C)cc1Cl [Example 1-81] |  | > 10000 |
| Cc1cc(C)cc(Oc2ccc([N+](=O)[O-])cc2S(=O)(=O)N2CCN(CCOCCO)CC2)c1 [Example 1-89] |  | < 1000 |
| Cc1cc(C)cc(Oc2ccc([N+](=O)[O-])cc2S(=O)(=O)N2CCCNCC2)c1 [Example 1-90] |  | < 1000 |
| Cc1cc(C)cc(Oc2ccc([N+](=O)[O-])cc2S(=O)(=O)N2CC(C)NC(C)C2)c1 (centres unmarked) [Example 1-92] |  | < 1000 |
| CC1CN(S(=O)(=O)c2cc([N+](=O)[O-])ccc2Oc2cc(Cl)cc(Cl)c2)CC(C)N1 (centres unmarked) [Example 1-93] |  | < 1000 |
| Cc1cc(C)cc(Sc2ccc([N+](=O)[O-])cc2S(=O)(=O)N2CCNCC2)c1 [Example 2-1, 1-({2-[(3,5-dimethylphenyl)-sulfanyl]-5-nitrophenyl}sulfonyl)piperazine hydrochloride] |  | < 1000 |
| Cc1cc(C)cc(Oc2ccc(N)cc2S(=O)(=O)N2CCN(C(=O)OC(C)(C)C)CC2)c1 [Example 5-1, tert-butyl 4-{[5-amino-2-(3,5-dimethyl-phenoxy)phenyl]sulfonyl}-1-piperazinecarboxylate] |  | > 10000 |
| Cc1cc(C)cc(Oc2ccc(Cl)cc2S(=O)(=O)N2CCNCC2)c1 [Example 5-2, 1-{[5-chloro-2-(3,5-dimethylphenoxy)phenyl]sulfonyl}piperazine hydrochloride] |  | < 1000 |
| Cc1cc(C)cc(Oc2ccc(O)cc2S(=O)(=O)N2CCNCC2)c1 [Example 6-1, 4-(3,5-dimethylphenoxy)-3-(1-piperazinylsulfonyl)phenol hydrochloride] |  | > 10000 |
| COc1ccc(Oc2cc(C)cc(C)c2)c(S(=O)(=O)N2CCNCC2)c1 [Example 6-2, hydrochloride] |  | 1000 to 10000 |
| Cc1cc(C)cc(Oc2ccc(Br)cc2S(=O)(=O)N2CCNCC2)c1 [Example 8-1, 1-{[5-bromo-2-(3,5-dimethylphenoxy)phenyl]sulfonyl}piperazine hydrochloride] |  | < 1000 |
| Cc1cc(C)cc(Oc2ccc(C#N)cc2S(=O)(=O)N2CCNCC2)c1 [Example 9-1, 4-(3,5-dimethylphenoxy)-3-(1-piperazinylsulfonyl)benzonitrile hydrochloride] |  | < 1000 |
| CN(C)C(=O)c1ccc(Oc2cc(Cl)cc(Cl)c2)c(S(=O)(=O)N2CCNCC2)c1 [Example 10-1, 4-(3,5-dichlorophenoxy)-N,N-dimethyl-3-(1-piperazinylsulfonyl)benzamide hydrochloride] |  | 1000 to 10000 |
| Cc1cc(C)cc(Oc2cc3cc[nH]c3cc2S(=O)(=O)N2CCNCC2)c1 [Example 11-1, 5-(3,5-dimethylphenoxy)-6-(1-piperazinylsulfonyl)-1H-indole trifluoroacetate] |  | > 10000 |
| N#Cc1ccc(Nc2cc(Cl)cc(Cl)c2)c(S(=O)(=O)N2CCNCC2)c1 [Example 20-1, 4-[(3,5-dichlorophenyl)amino]-3-(1-piperazinylsulfonyl)benzonitrile hydrochloride] |  | < 1000 |
| Cc1cc(C)cc(Oc2ccncc2S(=O)(=O)N2CCNCC2)c1 [Example 25-1, 1-{[4-(3,5-dimethylphenoxy)-3-pyridinyl]sulfonyl}piperazine hydrochloride] |  | < 1000 |
